Assay results reported in patent US20120012123A1, “COMPOSITIONS, ARTICLES AND METHODS FOR PREVENTING OR REDUCING TOBACCO-ASSOCIATED DAMAGE” (Technion Research & Development Foundation Ltd., priority 2007, published 2012).

How the values were obtained:
[1] = system: H1299 human lung cancer cells; assay: H1299 cells survival after cigarette smoke (CS) exposure with/without saliva, Trypan Blue exclusion test; format: cell-based
Description: During smoke exposure, the cells were put into a smoking sealed chamber (33.5 cm^3) with CS pressure of 0.3 Bar. Control cells were subjected to the same procedures, but exposed only to fresh air. Cells were exposed to CS for one “puffs” every 15 minute for a 2 hours (120 minutes) period (unless indicated otherwise). Cells were used when it becomes confluent and the medium (with/without saliva) volume was compatibly to the dish in use.
The H1299 cells viability was measured at various time points by Trypan Blue exclusion test, both in exposed and control cells.
The medium covering the dish was collected and cells were trypsinized and centrifuged at 1200×g for 10 minutes. Cell pellets were re-suspended in 1 mL of medium and a sample was collect for cell counting. Cells were stained with the vital dye Trypan Blue at final concentration of 0.25% and were placed on hemocytometer. Visual counting was preformed by inverted microscope.
H1299 cells were incubated for 120 minutes with or without the presence of saliva in the culture medium and exposed to CS. […] Cell viability was evaluated by Trypan blue exclusion dye assay.

p53 = assay: Total p53 expression levels, Western blot analysis; format: cell-based, human; details: 2 mM GSH, exposure of CS 120 minutes and 33% saliva (FIG. 17)
Description: Western blot analysis was used to assay the protein expression levels of the P53, using β-actin signal as a loading reference. Samples with equal amount of protein (20 μg protein/lane) were prepared in 2× sample buffer (0.125 M 2-amino-2-(hydroxymethyl)propane-1,3-diol (Tris)-HCl, pH 6.8, glycerol (20% v/v), SDS (4% w/v), 0.14 M β-mercaptoethanol and bromophenol blue (0.005% w/v)). The samples were boiled for 10 minutes and subjected to electrophoresis through 12% SDS-polyacrylamide gel in running buffer, or stored at −20° C. until further use. The gels were then electrophoretically transferred to nitrocellulose membranes for 90 minutes at 90 W, in transfer buffer containing 20 mM Tris-HCl, pH 6.8, 150 mM Glycine and 20% (v/v) methanol. Blots were blocked in 5% non-fat milk in PBS-T (62.5 mM sodium phosphate buffer, pH 7.4, containing 100 mM NaCl and 0.1% (v/v) Tween-20) and then incubated for 2 hours or overnight at 4° C. with rabbit antihuman p53 1:5000 or mouse antihuman β-actin 1:15000. […] Binding of antibodies to the membrane was detected with an EZ-ECL-detection reagent, X-Omat blue XB-1 Kodak scientific Imaging Film for 10 seconds-15 minutes.
The effect of CS on p53 accumulation was analyzed. […] Western blot analysis was performed and the amount of p53 was evaluated.

H1299 cells [2] = assay: Cell viability by Propidium Iodide (PI) fluorescence, flow cytometry, after CS exposure; format: cell-based, human; details: mean ± SD, n = 4
Description: FACS was used to monitor cell-cycle and cell-viability after CS exposure with/without saliva presence. After cells were exposed to ROS attack, medium covering the cells was removed and cells were trypsinized. For cell viability, cell suspension was centrifuged at 1200×g for 10 minutes and the pellets were re-suspended in 0.5 ml of 10 μg/ml Propidium iodide (PI) and incubated for 15 minutes at dark condition, 4° C. The cell suspensions were thereafter analyzed with a flow cytometer, using CellQuest software. […] PI is excluded by viable cells, and penetrates to cell membranes of dead cells. H1299 cells were incubated for 120 minutes with or without the presence of saliva in the culture medium and exposed to CS. […] Cell viability was evaluated by fluorescence assay.

H1299 lung cancer cells = assay: Mitochondrial membrane potential (ΔΨm), JC-1 incorporation by flow cytometry; format: cell-based, human; details: 5 mM agent
Description: (§1) For mitochondrial oxidative damage, pellets were re-suspended in 0.5 ml of 10 μg/ml 10-N-nonyl acridine orange (NAO) and incubated for 30 minutes at 37° C. and dark condition. Mitocondrial membrane potential was measured after staining cells with 1 μg/ml JC-1 (5,5′,6,6′-tetrachloro-1,1′,3,3′-tetraethylbenzimidazolyl carbocyanine iodide; Molecular Probes) for 30 minutes at 37° C. in the dark. Uncoupling with carbonyl cyanide p-trifluoromethoxyphenylhydrazone (FCCP) (20 µM for 30 minutes) was used as positive control.
Mitochondrial membrane permeabilization is an essential step leading to apoptosis. Disruption of ΔΨm irreversibly commits cells to undergo death and is an early marker of apoptosis. Furthermore, cigarette smoke was previously shown to induce mitochondrial depolarization in human monocytes. Therefore, reduced ΔΨm, as measured by diminished incorporation of the fluorescent dye JC-1, was used as an early indicator for CS-induced apoptosis.
H1299 lung cancer calls were exposed for 120 minutes to CS with or without saliva. […] JC-1 incorporation was measured by flow cytometry method.

[3] = system: oral cancer cells (SCC-25); assay: Oral cancer cells (SCC-25) survival after CS exposure with/without saliva, Trypan blue assay; format: cell-based; details: 5 mM PenA, CS 120 minutes
Source text: In FIG. 18A, (n=14) and (p=0.0024) and in […], (n=7) and (p=0.015).
Similar results were obtained with oral cancer cells (SCC-25).

H1299 lung cells = assay: Mitochondrial oxidative damage, NAO binding to cardiolipin by flow cytometry; format: cell-based, human; details: 5 mM agent, 120 minutes of CS exposure (FIG. 15)
Description: as §1
The mitochondrial quality is the amount of all the intra-cellular mitochondria and their content, and it is an important index of mitochondrial injury. Nonyl-Acridine Orange (NAO) is a fluorescent dye that can bind specifically to unoxidizable cardiolipin (CL), a mitochondrial phospholipid, independent of the mitochondria energetic state (ΔΨm). NAO lost its affinity for CL with a hydroperoxide fatty acid (CL-OOH).
NAO flow cytometry was used to measure the quality of H1299 lung cells exposed for 120 minutes to CS with or without saliva.

H1299 cells [4] = assay: Protein carbonyl assay (ELISA) on H1299 cells exposed to CS; format: cell-based, human; details: 5 mM PenA
Description: Protein carbonyl concentration was determined by enzyme-linked immunosorbent assay (ELISA), using the Zentech PC Test Kit (Zenith Technology, Dunedin, New Zealand). Briefly, protein cell extractions were allowed to react with a dinitrophenylhydrazine (DNP) solution (200 μl). The DNP-reacted proteins bound non-specifically to an ELISA plate, and the unconjugated DNP and non-protein entities were washed away. The adsorbed DNP-protein was then probed with an anti-DNP-biotin antibody, followed by a streptavidin-linked HRP probe. Then the […] reagent that contained peroxide was added to catalyze the oxidation of TMB. Finally, the reaction was stopped by the addition of a stopping reagent (acid, provided with the kit), and the absorbance was measured for each well at 450 nm using a spectrophotometer. Along with controls and samples, protein carbonyl standards were also included in the assay. The content of the carbonyl protein in the mitochondrial samples was determined as pmol/mg protein, using the standard curve.

CC(=O)N(O)CCCCCNC(=O)CCC(=O)N(O)CCCCCNC(=O)CCC(=O)N(O)CCCCCN [DES, deferoxamine]
cellular death rate ([1]; 5 mM DES, CS 120 minutes and saliva (FIG. 12)): 20.5%

N[C@@H](CCC(=O)N[C@@H](CS)C(=O)NCC(=O)O)C(=O)O [GSH, L-c-glutamyl-L-cysteinyl-glycine]
prevention of p53 downregulation (in words) (p53): totally preventing
protection of cell survival (in words) ([1]; 2 mM GSH, CS exposure alone, no saliva): no additional protection
increase of cell survival ([1]; 2 mM GSH, CS exposure, saliva-containing medium (30% v/v) (FIG. 9)): more than 50%

CC(C)(S)[C@@H](N)C(=O)O [PenA, D-penicillamine]
effect on survival rate, 1 mM versus 5 mM (in words) ([1]; 1 mM and 5 mM PenA, CS exposure, medium or medium + 30% saliva (FIG. 7)): dose-dependent effect
reduction of cells loss ([1]; 5 mM PenA, 120 minutes of exposure to CS, medium without saliva): 25%
survival rate ([1]; 5 mM PenA, CS 120 minutes, medium + 30% saliva (FIG. 7)): 76.4%
survival rate ([1]; 5 mM PenA, CS 120 minutes, medium alone, no saliva (FIG. 7)): 75.5%
reduction of cells loss (in words) ([1]; 5 mM PenA, saliva supplemented to the medium prior to exposure to CS): Reduction of cells loss was also observed
increase of cells survival ([1]; PenA, CS 120 minutes, medium alone, percent of control (FIG. 6A)): 12%
increase of cell survival ([1]; PenA, CS 120 minutes, saliva-containing medium (30% v/v), percent of control (FIG. 6A)): 20%
Positive dead cells (%) (H1299 cells [2]; CS 120 minutes + 5 mM PenA + saliva): 2.33%
Positive dead cells (%) (H1299 cells [2]; CS 120 minutes + 5 mM PenA, no saliva): 2.98%
Positive dead cells (%) (H1299 cells [2]; Medium + 5 mM PenA + saliva, no CS): 4.15%
Positive dead cells (%) (H1299 cells [2]; Medium + 5 mM PenA, no CS, no saliva): 3.75%
protection against ΔΨm losses (in words) (H1299 lung cancer cells; CS 120 minutes alone, no saliva (FIG. 14)): strong protection
protection against ΔΨm losses (in words) (H1299 lung cancer cells; CS 120 minutes and 33% saliva (FIG. 14)): no significant change
survival loss ([3]; absence of saliva (FIG. 18A)): 23%
survival loss ([3]; saliva added to medium (FIG. 18B)): 22%
amount of NAO bound to mitochondrial CL (in words) (H1299 lung cells): the same
protein carbonyl content (H1299 cells [4]; CS 60 minutes and saliva (FIG. 11)): 4.02 nmol/mg protein
protein carbonyl content (H1299 cells [4]; CS 60 minutes, medium alone (FIG. 11)): 4.45 nmol/mg protein
